Experimental data as given in US20090176817A1, “Method of Treatment of Diarrhea-Predominant Irritable Bowel Syndrome in a Subject” (priority 2005, published 2009).
Where two headings read alike, the source gives them in different places. Marks after values point to notes of the source that are not given here.

What was measured:
[1] = test system: diarrhea-predominant IBS subjects; test: Study S241.3.011: interruption of activities assessment; assay type: in vivo, human
Description: Studies S24 1.3.OO6, S24 1.3.0 1 1, and S24 1.3.009 used the following efficacy measurements: • The subjects answered the following three questions with “yes” or “no” using a phone diary at the end of each week: • a) During the last week, did you experience adequate relief of your IBS symptoms, such as abdominal pain, abdominal discomfort, abnormal bowel habits? • b) During the last week, did you experience adequate relief of your abdominal pain and/or discomfort? • c) During the last week, did you experience adequate relief of your abnormal bowel habits? • The subjects rated the following symptoms using the phone diary at the end of each day: • abdominal pain/discomfort (five-point scale); • stool consistency (seven-point Bristol Stool Scale); • stool frequency (number of bowel movements each day); • urgency (five-point scale); • straining (yes or no); • feeling of incomplete defecation (yes or no); • bloating or feeling of abdominal distension (five-point scale). • In Studies S241 A006 and S241.3.009, subjects completed the IBS-QOL Survey at Baseline (Day 1) and at the end of treatment. In Study S24 1.3.0 1 1, subjects completed the IBS-QOL Survey at Baseline (Day 1), at the end of the three-month treatment period, and at the end of rerandomized treatment.
Other secondary efficacy parameters for all three studies included: • Responder rate for the weekly diary questions on adequate relief at each month, where a responder for a month (monthly responder) was defined as a subject who answered the weekly question with “yes” at least twice for that month. The responder rate was the percentage of responders within a treatment group. The all-month responder rate for the weekly diary questions on adequate relief was also evaluated, where an all-month responder was defined as a subject who answered the weekly question with “yes” at least twice for each month. The all-month responder rate was the percentage of all-month responders within a treatment group; • Adequate relief rate for the weekly diary questions was calculated for each subject as the number of weekly assessments with adequate relief (“yes”) divided by the total number of weekly assessments; • Percentage of subjects with adequate relief for the weekly diary questions at each week; • Daily diary questions regarding abdominal pain/discomfort (five-point scale), stool consistency (seven-point scale), stool frequency (number of bowel movements each day), straining (yes or no), urgency (five-point scale), feeling of incomplete evacuation (yes or no), and bloating or feeling of abdominal distention (five-point scale); • QOL data assessed by the IBS-QOL questionnaire; and • Question to determine the interruption of activities.

[2] = both, human, in vivo
clinical = conditions: male, human, in vivo; for CL renal: CLr; for half-life: T½
Experimental: Subjects were randomized to receive cilansetron 8 mg IV solution (30-minute infusion), cilansetron 8 mg oral solution, and a cilansetron 8 mg capsule during the three treatment periods, with a 23-day washout between periods. All doses were administered under fasted conditions. […] Table 2.7.1.2.3 presents descriptive statistics for the pharmacokinetic parameters of cilansetron capsule and oral solution, and the results of statistical comparisons between treatments (capsule versus solution). […] Median Tmax was also similar between the capsule and oral solution.
Subjects were randomized to receive cilansetron 8 mg IV solution (30-minute infusion), cilansetron 8 mg oral solution, and a cilansetron 8 mg capsule during the three treatment periods, with a 23-day washout between periods. All doses were administered under fasted conditions. […] Its low bioavailability, complete absorption from the GI tract, and its 4.5- to 5-fold higher apparent oral clearance in comparison to systemic clearance indicate that cilansetron is a high extraction drug and undergoes significant first pass metabolism on oral administration. Intersubject % CVs were higher for oral (47-73%) than for IV administration (19-20%), reflecting increased variability due to oral absorption. Intrasubject % CVs ranged from 37-47% following oral and IV administration.
Cilansetron concentrations in this study were also modeled using a standard 2-compartment model for the IV data and a 1-compartment model for the oral data (using TOPFIT 2.0). The results from modeling are compared to the results obtained from non-compartmental analysis in Table 2.7.2.3.10 below, for the oral and IV solution. The results obtained by the two methods are very similar.

For `Cc1nccn1C[C@H]1CCc2c(c3cccc4c3n2CCC4)C1=O` [Cilansetron, (R)-(−)-4,5,6,8,9,10-hexahydro-10-[(2-methyl-1H-imidazol-1-yl)methyl]-11H-pyrido-[3,2,1-jk]-carbazol-11-one], the “Subjects “not at all or rarely” bothered, rerandomization Endpoint” value (“Subjects “not … rerandomization Endpoint” below) ([1]; C/C) was 54%, the “Subjects “not … rerandomization Endpoint” value ([1]; C/P) was 37% and the “Subjects “not at all or rarely” bothered by IBS symptoms” value ([1]; Endpoint, 3-month period) was 46%. For the same molecule, the “Subjects “not … rerandomization Endpoint” value ([1]; P/C) was 50%, the “AUC(0-τ) ratio Mild/Healthy” value [2] was 71 (38, 132) % and the “AUC(0-τ) ratio Moderate/Healthy” value [2] was 49 (25, 95) %. The “AUC(0-τ) ratio Renal Combined/Healthy” value [2] was 76 (47, 124) %, the “AUC(0-τ) ratio Severe/Healthy” value [2] was 130 (66, 254) % and the “CL/F ratio Mild/Healthy” value [2] was 141 (76, 264) %. For the same molecule, the “CL/F ratio Moderate/Healthy” value [2] was 206 (105, 403) %, the “CL/F ratio Renal Combined/Healthy” value [2] was 131 (81, 213) % and the “CL/F ratio Severe/Healthy” value [2] was 77 (39, 151) %. For the same molecule, the “Cmax ratio Mild/Healthy” value [2] was 83 (50, 140) %, the “Cmax ratio Moderate/Healthy” value [2] was 55 (32, 96) % and the “Cmax ratio Renal Combined/Healthy” value [2] was 90 (60, 134) %. For the same molecule, the “Cmax ratio Severe/Healthy” value [2] was 156 (89, 272) %, the “T½ ratio Mild/Healthy” value [2] was 85 (63, 114) % and the “T½ ratio Moderate/Healthy” value [2] was 65 (47, 89)* %. For the same molecule, the “T½ ratio Renal Combined/Healthy” value [2] was 78 (62, 99) %, the “T½ ratio Severe/Healthy” value [2] was 87 (64, 120) % and the Tmax ([2]; 2 mg) was 1.13 h. For the same molecule, the “AUC(0-inf) ratio Oral Capsule/IV Soln” value (clinical) was 25 (19, 32) %, the “AUC(0-inf) ratio Oral Soln/IV Soln” value (clinical) was 26 (20, 34) % and the “AUC(0-last) ratio Oral Capsule/IV Soln” value (clinical) was 23 (18, 31) %. The “AUC(0-last) ratio Oral Soln/IV Soln” value (clinical) was 24 (18, 32) %, the “Intrasubject % CV” value (clinical) was 37-47% and the “% Dose (urine)” value (clinical; iv) was 0.41 (96) %. For the same molecule, the “AUC(0-inf)” value (clinical; iv) was 222 (42) ng · h/mL, the CL (clinical; iv) was 619 (108) mL/min and the “Intersubject % CV” value (clinical; iv) was 19-20%. For the same molecule, the T½ (clinical; iv) was 1.33 (0.32) h, the Vss (clinical; iv) was 58 (11) L and the AUC(0-inf) (clinical; iv, 8 mg, AUC(0-inf)) was 234 ng·h/mL. The AUC(0-t) (clinical; iv, 8 mg, AUC(0-last)) was 228 ng·h/mL, the clearance (clinical; iv, 8 mg, CL) was 590 mL/min and the CL renal (clinical; iv, 8 mg) was 2.3 mL/min. For the same molecule, the clearance (clinical; iv, 8 mg, Systemic plasma clearance) was roughly 600 mL/min, the half-life (clinical; iv, 8 mg) was 1.33 h and the Vd (clinical; iv, 8 mg, Vss) was 55.6 L. For the same molecule, the Vd (clinical; iv, 8 mg, Vz) was 66.7 L, the AUC(0-inf) (clinical; iv, AUC (0-inf)) was 234 ng·h/mL and the clearance (clinical; iv, CL) was 590 mL/min. For the same molecule, the Cmax (clinical; iv, Cmax) was 149 ng/mL, the Vd (clinical; iv, Steady-state volume of distribution (Vss)) was roughly 56 L and the Tmax (clinical; iv, Tmax) was 0.55 h. For the same molecule, the half-life (clinical; iv) was 1.33 h, the Vd (clinical; iv, Vss) was 56 L and the “AUC (0-inf) ratio capsule:oral solution” value (clinical; po) was 93%. For the same molecule, the “AUC (0-last) ratio capsule:oral solution” value (clinical; po) was 96%, the “AUC(0-inf)” value (clinical; po) was 69 (49) ng · h/mL and the “Apparent oral clearance higher than systemic clearance” value (clinical; po) was 4.5-5 fold. For the same molecule, the Cmax (clinical; po) was 29 (18) ng/mL, the “Cmax ratio capsule:oral solution” value (clinical; po) was 88% and the “Intersubject % CV” value (clinical; po) was 47-73%. For the same molecule, the Tmax (clinical; po) was 0.76 (0.40) h, the T½ (clinical; po) was 1.14 (0.27) h and the bioavailability (clinical; po) was 25%. The “AUC(0-inf)” value (clinical; po, 8 mg) was 73.8 (69) ng · h/mL, the “AUC(0-last)” value (clinical; po, 8 mg) was 69.3 (73) ng · h/mL and the CLr (clinical; po, 8 mg) was 2.37 (95) mL/min. The Cmax (clinical; po, 8 mg) was 39.2 (67) ng/mL, the Tmax (clinical; po, 8 mg) was 0.83 (0.33, 1.25) h and the T½ (clinical; po, 8 mg) was 1.47 (21) h. The Vz/F (clinical; po, 8 mg) was 308 (79) L, the AUC(0-inf) (clinical; po, 8 mg, AUC (0-inf)) was 66 ng·h/mL and the AUC(0-t) (clinical; po, 8 mg, AUC (0-last)) was 62.1 ng·h/mL. It also gave a CL renal (clinical; po, 8 mg) of 2.92 mL/min, a Cmax (clinical; po, 8 mg, Cmax) of 31.4 ng/mL and a Tmax (clinical; po, 8 mg, Tmax) of 1 h. It also gave a half-life (clinical; po, 8 mg) of 1.28 h, a Vd/F (clinical; po, 8 mg, Vz/F) of 342 L and an AUC(0-inf) (clinical; po, AUC (0-inf)) of 74 ng·h/mL. It also gave a Cmax (clinical; po, Cmax) of 39 ng/mL, a Tmax (clinical; po, Tmax) of 0.76 h and a half-life (clinical; po) of 1.47 h.
